From ChEMBL document CHEMBL5154930, “Design, Synthesis, and Biological Evaluations of DOT1L Peptide Mimetics Targeting the Protein-Protein Interactions between DOT1L and MLL-AF9/MLL-ENL” (J Med Chem, 2022) come the findings set out here.

Non-standard residues stand in square brackets, D forms with d. Residues, ends and D or L forms follow the SMILES beside them. *: point of attachment. X6 = c1ccc(C[C@H](N*)c2nc3cccc(-c4ccccc4)c3[nH]2)cc1; X7 = CC[C@H](C)[C@H](N*)c1nc2cccc(-c3ccccc3)c2[nH]1; X3 = CC(C)C[C@H](N*)c1nc2cccc(-c3ccccc3)c2[nH]1; X5 = c1ccc(-c2cccc3nc([C@@H]4CCCN4*)[nH]c23)cc1; X4 = CC(C)[C@H](N*)c1nc2cccc(-c3ccccc3)c2[nH]1; X1 = C[C@H](N*)c1nc2cccc(-c3ccccc3)c2[nH]1; Ala(cPent) = N[C@@H](CC1CCCC1)C(=O)O; Pentanoyl(4-Me) = CC(C)CCC(=O)*; Dap(Me) = CNC[C@H](N)C(=O)O; Dap = NC[C@H](N)C(=O)O; Bz = O=C(c1ccccc1)*

For one data set, the target named is T1, Protein AF-9 (Homo sapiens, UniProt P42568).
T1 sequence (P42568 whole entry): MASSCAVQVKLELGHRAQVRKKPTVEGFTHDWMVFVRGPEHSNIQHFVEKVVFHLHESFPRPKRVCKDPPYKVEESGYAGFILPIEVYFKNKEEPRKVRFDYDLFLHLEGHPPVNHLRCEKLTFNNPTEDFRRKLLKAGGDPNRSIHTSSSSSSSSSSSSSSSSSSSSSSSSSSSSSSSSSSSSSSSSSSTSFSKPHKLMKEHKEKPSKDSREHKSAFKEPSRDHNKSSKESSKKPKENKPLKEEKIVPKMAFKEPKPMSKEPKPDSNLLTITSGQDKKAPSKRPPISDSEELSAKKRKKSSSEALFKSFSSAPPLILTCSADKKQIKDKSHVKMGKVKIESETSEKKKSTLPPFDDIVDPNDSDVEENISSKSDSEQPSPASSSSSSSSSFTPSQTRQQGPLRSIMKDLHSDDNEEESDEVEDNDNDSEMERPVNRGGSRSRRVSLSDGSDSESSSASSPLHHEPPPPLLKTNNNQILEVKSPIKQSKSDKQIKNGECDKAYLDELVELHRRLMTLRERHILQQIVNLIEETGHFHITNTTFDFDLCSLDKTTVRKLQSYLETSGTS
Kind of data set: Binding affinity to MBP-tagged human recombinant AF9 (487 to 568 residues) incubated for 40 mins by measuring fluorescence polarization by microplate reader method.

The next data set deals with KOPN-8. Put plainly: cells. To be noted: Homo sapiens, KOPN-8, 192 h.
In data set [1] the test system is MOLM-13. Put plainly: cells. Conditions: Homo sapiens, MOLM-13, 192 h.
Description: Anticancer activity against human MOLM-13 cells harbouring MLL-AF9 assessed as inhibition of cell growth treated for 8 days measured by CCK-8 kit method
Data set [2] concerns MOLM-13. Kind of data set: cells. To be noted: Homo sapiens, MOLM-13, 168 h.
Description: Anticancer activity against human MOLM-13 cells harbouring MLL-AF9 assessed as inhibition of cell growth treated for 7 days measured by CCK-8 kit method
The test system of data set [3] is MOLM-13. Put plainly: cells. Conditions: Homo sapiens, MOLM-13, 216 h.
Description: Anticancer activity against human MOLM-13 cells harbouring MLL-AF9 assessed as inhibition of cell growth treated for 9 days measured by CCK-8 kit method
A further data set concerns MV4-11. Put plainly: Anticancer activity against human MV4-11 cells assessed as inhibition of cell growth treated for 8 days measured by CCK-8 kit method. The format is functional, cell-based. Conditions: MV4-11, 192 h.
Data set [4] concerns MOLM-13. Put plainly: cells. Conditions: Homo sapiens, MOLM-13, 120 h.
Description: Anticancer activity against human MOLM-13 cells harbouring MLL-AF9 assessed as inhibition of cell growth treated for 5 days measured by CCK-8 kit method
A short description of data set [5]: Stability in human plasma assessed as compound remaining measured upto 1440 mins by HPLC analysis. The data set is classed as ADME, cell-free. To be noted: read-out: Stability.
Another data set has as its system RS4-11. Kind of data set: Anticancer activity against human RS4-11 cells assessed as inhibition of cell growth treated for 8 days measured by CCK-8 kit method. The format is functional, cell-based. To be noted: RS4-11, 192 h.
Data set [6] is described as follows: Apparent permeability across apical to basolateral side in human Caco-2 cells. The format is ADME, cell-based.
Data set [7] has as its system MOLM-13. Put plainly: cells. Conditions: Homo sapiens, MOLM-13, 144 h.
Description: Anticancer activity against human MOLM-13 cells harbouring MLL-AF9 assessed as inhibition of cell growth treated for 6 days measured by CCK-8 kit method
In the next data set the test system is K562. Kind of data set: Anticancer activity against human K562 cells assessed as inhibition of cell growth treated for 8 days measured by CCK-8 kit method. Conditions: K562, 192 h. The data set is classed as functional, cell-based. A general note: Formazan colour is commonly taken as a measure of viable cells.
Data set [8] has as its system MOLM-13. Put plainly: cells. To be noted: Homo sapiens, MOLM-13, 96 h.
Description: Anticancer activity against human MOLM-13 cells harbouring MLL-AF9 assessed as inhibition of cell growth treated for 4 days measured by CCK-8 kit method

Description for KOPN-8: Anticancer activity against human KOPN-8 cells harbouring MLL-ENL assessed as inhibition of cell growth treated for 8 days measured by CCK-8 kit method

The Ki is the dissociation constant of the complex between target and ligand, obtained from inhibition or displacement. With `CC[C@@H](C)[C@H](NC(=O)[C@@H]1CCCN1C(=O)[C@H](CC(C)C)NC(C)=O)C(=O)N[C@@H](CO)C(=O)N[C@H](C(=O)N1CCC[C@H]1C(=O)N[C@@H](CC(C)C)C(=O)N(C)C)[C@@H](C)CC`, the inhibition constant (Ki) at Protein AF-9 stood at 160 nM.

Usually IC50 stands for the point on the concentration scale where inhibition reaches its midpoint. Consider `CC(=O)N[C@@H](CC(C)C)C(=O)N1CCC[C@H]1C(=O)N[C@H](C(=O)N[C@@H](CN)C(=O)N[C@@H](CC1CCCC1)C(=O)N[C@@H](C)c1nc2cccc(-c3ccccc3)c2[nH]1)C(C)C` (Ac-LPV[Dap][Ala(cPent)]-X1), for which the inhibitory constant (Ki) on Protein AF-9 came out at 17 nM. Further, the IC50 in the data set with KOPN-8 worked out at 440 nM; in the data set on MOLM-13 [1] it was 460 nM.

In the case of `CC(=O)N[C@@H](CC(C)C)C(=O)N1CCC[C@H]1C(=O)N[C@H](C(=O)N[C@@H](CN)C(=O)N[C@@H](CC1CCCC1)C(=O)N[C@@H](CC(C)C)c1nc2cccc(-c3ccccc3)c2[nH]1)C(C)C` (Ac-LPV[Dap][Ala(cPent)]-X3), the inhibition constant (Ki) at Protein AF-9 turned out to be 19 nM. In addition, the half-maximal inhibitory concentration (IC50) with KOPN-8 stood at 430 nM; in the data set on MOLM-13 [1] it was 490 nM.

Turning to `CC(=O)N[C@@H](CC(C)C)C(=O)N1CCC[C@H]1C(=O)N[C@H](C(=O)N[C@@H](CN)C(=O)N[C@@H](CC1CCCC1)C(=O)N[C@H](c1nc2cccc(-c3ccccc3)c2[nH]1)C(C)C)C(C)C` (Ac-LPV[Dap][Ala(cPent)]-X4), the Ki at Protein AF-9 was 29 nM. In addition, the results for the half-inhibitory concentration (IC50) with KOPN-8 and in the data set on MOLM-13 [1] were 750 nM and 640 nM, respectively.

`CC(=O)N[C@@H](CC(C)C)C(=O)N1CCC[C@H]1C(=O)N[C@H](C(=O)N[C@@H](CN)C(=O)N[C@@H](CC1CCCC1)C(=O)N1CCC[C@H]1c1nc2cccc(-c3ccccc3)c2[nH]1)C(C)C` (Ac-LPV[Dap][Ala(cPent)]-X5): at Protein AF-9, the Ki was 22 nM. For the same compound, the results for the 50% inhibitory concentration (IC50) with KOPN-8 and with MOLM-13 [1] were 680 nM and 500 nM, respectively.

`CC(=O)N[C@@H](CC(C)C)C(=O)N1CCC[C@H]1C(=O)N[C@H](C(=O)N[C@@H](CN)C(=O)N[C@@H](CC1CCCC1)C(=O)N[C@@H](Cc1ccccc1)c1nc2cccc(-c3ccccc3)c2[nH]1)C(C)C` (Ac-LPV[Dap][Ala(cPent)]-X6): at Protein AF-9, the Ki came out at 13 nM. In addition, the IC50 with KOPN-8 came out at 410 nM; in the data set on MOLM-13 [1], 440 nM.

Turning to `CC[C@H](C)[C@H](NC(=O)[C@H](CC1CCCC1)NC(=O)[C@H](CN)NC(=O)[C@@H](NC(=O)[C@@H]1CCCN1C(=O)[C@H](CC(C)C)NC(C)=O)C(C)C)c1nc2cccc(-c3ccccc3)c2[nH]1` (Ac-LPV[Dap][Ala(cPent)]-X7), the inhibition constant Ki on Protein AF-9 amounted to 23 nM. Also, the IC50 in the data set with KOPN-8 was 480 nM; with MOLM-13 [1] it was 610 nM.

Consider `CNC[C@H](NC(=O)[C@@H](NC(=O)[C@@H]1CCCN1C(=O)c1ccccc1)C(C)C)C(=O)N[C@@H](CC1CCCC1)C(=O)N[C@@H](C)c1nc2cccc(-c3ccccc3)c2[nH]1` (Bz-PV[Dap(Me)][Ala(cPent)]-X1), for which the inhibition constant (Ki) at Protein AF-9 was determined as 32 nM. Also, the results for the IC50 in the data set on KOPN-8 and with MOLM-13 [1] were 670 nM and 740 nM, respectively.

With `CC(C)[C@H](NC(=O)[C@@H]1CCCN1C(=O)c1ccccc1)C(=O)N[C@@H](CN)C(=O)N[C@@H](CC1CCCC1)C(=O)N[C@@H](C)c1nc2cccc(-c3ccccc3)c2[nH]1` (Bz-PV[Dap][Ala(cPent)]-X1), the inhibitory constant (Ki) on Protein AF-9 worked out at 15 nM. For the same compound, the concentration for half-maximal inhibition (IC50) in the data set on KOPN-8 was determined as 330 nM; with MOLM-13 [1], 310 nM.

On to `CC[C@H](C)[C@H](NC(=O)[C@H](CO)NC(=O)[C@@H](NC(=O)[C@@H]1CCCN1C(=O)[C@H](CC(C)C)NC(C)=O)C(C)C)C(=O)N1CCC[C@H]1C(=O)N[C@@H](CC(C)C)C(=O)N(C)C` (HELM PEPTIDE1{[ac].L.P.V.S.I.P.L.[CN(C)[*:1]]}$$$$V2.0), for which the Ki at Protein AF-9 amounted to 160 nM.

In general, Papp A→B refers to the apparent permeability from the apical to the basolateral side of a cell layer. Take `CC(C)CCC(=O)N1CCC[C@H]1C(=O)N[C@H](C(=O)N[C@@H](CN)C(=O)N[C@@H](CC1CCCC1)C(=O)N[C@@H](C)c1nc2cccc(-c3ccccc3)c2[nH]1)C(C)C` ({Pentanoyl(4-Me)}-PV[Dap][Ala(cPent)]-X1): the inhibition constant Ki on Protein AF-9 came to 9 nM. Further, the IC50 in the data set with MOLM-13 [2] was found to be 257 nM; in the data set on MOLM-13 [3], 94 nM; with MV4-11 it was 140 nM; in the data set with MOLM-13 [4], 932 nM; with RS4-11 it was 380 nM; in the data set on KOPN-8, 190 nM. Further, the concentration for half-maximal inhibition (IC50) amounted to 150 nM in the data set with MOLM-13 [1], 589 nM in the data set with MOLM-13 [7], 33000 nM with K562 and 1290 nM in the data set with MOLM-13 [8]. In addition, the remaining at 24 h in [5] was determined as 83%. Moreover, the Papp A→B in data set [6] amounted to 1.82 ×10⁻⁶ cm/s.

Turning to `CC(C)(C)NCC(O)COc1cccc2c1CC(O)C(O)C2` (stereo not drawn) [NADOLOL], the remaining at 24 h in data set [5] was 97.1%. For the same compound, the Papp A→B in data set [6] came out at 0.13 ×10⁻⁶ cm/s.

In the case of `CC(C)NCC(O)COc1cccc2ccccc12` (stereo not drawn) [PROPRANOLOL], in data set [5], the remaining at 24 h worked out at 72.9%. In data set [6], the Papp A→B amounted to 18.5 ×10⁻⁶ cm/s.
